Measured values published in patent publication US7888123B2 (priority 2005, dated 2011).

Key:
[1] = tested on: Schizochytrium sp. CB15-5; conditions: medium containing 10 to 30 μg/ml Zeocin; 28° C., 72 hours in the shade
Experimental: (3) Test for Zeocin Sensitivity of CB15-5 Strain
The precultured microorganism cells were diluted 1000-fold, and 100 μL thereof was seeded onto GYP plate media having Zeocin concentration ranging from 0 to 50 μg/ml, and incubated at 28° C. for 72 hours in the shade. The number and size of the resulting colonies were measured.

[2] = tested on: transformant having ef1α promoter; conditions: GPY plate media, 28° C.
Experimental: (§1) (22) Test for Zeocin Sensitivity of Transformant
(§2) The precultured microorganism cells were diluted to 20 cells/μl, and 1 μl thereof was spotted onto GPY plate media having Zeocin concentration ranging from 0 to 6000 μg/ml and incubated in the shade at 28° C. for 60 hours.

[3] = tested on: transformant having gapdh promoter; conditions: GPY plate media, 28° C.
Experimental: as §1, §2

[4] = tested on: wild type (CB15-5 strain); conditions: GPY plate media, 28° C.
Experimental: as §1, §2

[5] = tested on: transformant having actin promoter; conditions: GPY plate media, 28° C.

With `Cc1c(N)nc([C@H](CC(N)=O)NC[C@H](N)C(N)=O)nc1C(=O)N[C@H](C(=O)N[C@H](C)[C@@H](O)[C@H](C)C(=O)N[C@H](C(=O)NCCC1=N[C@@H](c2nc(C(=O)NCCCCN=C(N)N)cs2)CS1)[C@@H](C)O)[C@@H](O[C@@H]1O[C@@H](CO)[C@@H](O)[C@H](O)[C@@H]1O[C@H]1O[C@H](CO)[C@@H](O)[C@H](OC(N)=O)[C@@H]1O)c1cnc[nH]1` [Zeocin] the “number and size of the colonies” value [1] was “concentration-dependent decrease”, the “Zeocin concentration up to which viable” value [2] was ≤ 6000 µg/mL and the “Zeocin concentration up to which viable” value [3] was ≤ 2000 µg/mL. The “Zeocin concentration in which completely nonviable” value [4] was 20 µg/mL and the “Zeocin concentration up to which viable” value [5] was “up to 4000 μg/ml”.
